{
  "source": "patent US20230211023A1",
  "about": "“REPORTER SYSTEM FOR RADIONUCLIDE IMAGING” (Erasmus University Medical Center Rotterdam, priority 2020, published 2023)",
  "key": {"[1]": {"target": "LgBiT (Oplophorus gracilirostris, UniProt Q9GV45, A31E/A60N/A81I/D135N/F58L/F95D/G42A/G62A/G78A/G94A/G98A/H120P/I103V/I117V/I134L/K70R/L176M/L54V/L73R/L99Q/M102E/N171T/P142E/Q151K/Q38E/Q45L/V71I/Y165I)", "sequence (Q9GV45 other isoform, or with tags, fused parts or gaps with the stated changes)": "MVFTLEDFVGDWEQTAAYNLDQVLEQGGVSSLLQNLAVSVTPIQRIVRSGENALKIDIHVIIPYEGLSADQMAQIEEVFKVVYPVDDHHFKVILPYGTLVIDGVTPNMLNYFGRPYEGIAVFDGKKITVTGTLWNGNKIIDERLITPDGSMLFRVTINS", "conditions": "Dixon et al., 2016; read-out: Kd for binding to LgBiT / NLuc; cited from earlier work"}, "[2]": {"test_system": "cells expressing the reporter gene TMLgBiT", "sequence (as listed by the source)": "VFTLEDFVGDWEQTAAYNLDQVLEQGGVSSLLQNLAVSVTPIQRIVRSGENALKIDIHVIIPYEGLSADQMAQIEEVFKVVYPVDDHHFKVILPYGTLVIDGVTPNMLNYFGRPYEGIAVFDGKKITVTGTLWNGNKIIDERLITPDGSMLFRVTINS", "assay": "Binding of radiolabelled peptide to live cells expressing TMLgBiT, gamma counter", "assay_type": "cell-based", "conditions": "1 nM peptide, 20,000 cells/well, washed three times", "procedure": "The [^111In]-DOTA-6ahx-HiBiT peptide (1 nM) is added to cells expressing the reporter gene TMLgBiT and cells not expressing TMLgBiT are used as negative control (20,000 cells/well). Cells are washed three times and radioactivity measured at a gamma counter. A clear difference in radioactive signal (2000 fold) resulted between TMLgBiT expressing cells and cells non expressing the reporter gene. In FIG. 3, the radiation (in CPM, measured using a gamma counter) of cells expressing TMLgBiT and control cells after addition of […] of radioactive [^111In]-DOTA-6ahx-HiBiT peptide is provided."}, "[3]": {"test_system": "subcutaneously injected TMLgBiT expressing cells", "sequence (as listed by the source)": "as above", "assay": "SPECT imaging of mouse injected subcutaneously with TMLgBiT expressing cells", "assay_type": "in vivo", "conditions": "1 hour after injection of peptide, 20 MBq"}, "[4]": {"test_system": "PC3-TMLgBiT tumors", "sequence (as listed by the source)": "as above", "assay": "BL and dynamic SPECT/CT imaging of mice bearing PC3-TMLgBiT tumors (FIG. 7)", "assay_type": "in vivo, mouse", "conditions": "dynamic SPECT scan 1 hour after injection of 0,13 nM", "procedure": "For these experiments, eight-week-old nude BALB/C male mice (n=12) were injected with 5x10^6 PC-3-TM-LgBiT expressing cells (n=8). Cells were prepared for injections in PBS (Sigma-Aldrich) and matrigel (Corning) solution with a 50:50 ratio and a final injectable volume of 50 µL. Tumors were left to grow approximately 3-4 weeks post tumor cell implantation. To determine the functionality of the imaging system, a dynamic whole body SPECT/CT scan (VECT/CT Milabs) was performed. Mice were anesthetized using 1-2% isoflurane/O2 and the body temperature was maintained at 37° C. during the time of imaging (1 h) by using a heated bed aperture. The 1-hour dynamic SPECT/CT scan was performed immediately after tail vein injection of [^111In]-DOTA-6ahx-HiBiT for the PC-3 tumor model, (20 MBq labeled to 0.13 nmol in 200 µL PBS). […] Dynamic scans were obtained over a total duration of 1 h with 30 time frames, directly after injection of [^111In]-DOTA-6ahx-HiBiT. Acquired images were reconstructed using SR-OSEM with 9 iterations and 128 subsets on a 36 × 36 × 35 mm matrix with 0.80 × 0.80 mm isotropic voxels."}},
  "data": [
    {"substance": "NVSGWRLFKKISN [NLpep78]", "values": [
      {"measurement": "Kd", "setting": "[1]", "result": 3.4, "unit": "nM"}
    ]},
    {"substance": "NVTGYRLFKKISN [NLpep79]", "values": [
      {"measurement": "Kd", "setting": "[1]", "result": 8.5, "unit": "nM"}
    ]},
    {"substance": "[^111In]-DOTA-6ahx-HiBiT: DOTA-6ahx-HiBiT radiolabelled with indium-111", "values": [
      {"measurement": "difference in radioactive signal between TMLgBiT expressing cells and cells not expressing the reporter gene", "setting": "[2]", "result": 2000, "unit": "fold"},
      {"measurement": "SPECT detection of TMLgBiT expressing cells in vivo", "setting": "[3]", "result": "can be specifically detected"},
      {"measurement": "SPECT detection of TMLgBiT expressing cells in vivo", "setting": "[3]; listed as 111In -DOTA-6ax-HiBit", "result": "could be detected in vivo"},
      {"measurement": "SPECT detection of TMLgBiT expressing cells in vivo", "setting": "[3]; listed as radiolabeled HiBiT peptide", "result": "High specific signal is detected"},
      {"measurement": "SPECT signal from tumor", "setting": "[4]", "result": "specific signal from tumor is visible"}
    ]}
  ]
}
